Assay results published in patent publication US20070148184A1, “Survivin-derived peptides and use thereof” (priority 2003, published 2007).
“And” between values parts separate entries of the source, which are not always exact repeats. Equal entries are not always repeated. Residues, ends and D or L forms follow the SMILES beside them. No end group written: not given here.

target: HLA-A3 (Homo sapiens, UniProt P04439); assay: Assembly assay, HLA-A3; assay type: binding; settings: not given
Description: The binding affinity of synthetic peptides (Invitrogen, Carlsbad, Calif., USA) to HLA-A1, -A2, A3, or -A11 molecules metabolically labeled with [^35S]-methionine was measured in the assembly assay, as described previously (12). The assay is based on peptide-mediated stabilization of empty HLA molecules released upon cell lysis, from the TAP-deficient cell lines. Stably folded HLA-molecules were immune-precipitated using the HLA class I-specific, conformation-dependent mAb W6/32, and separated by isoelectric focusing (IEF) gel electrophoresis. MHC heavy chain bands were quantified using the ImageGauge Phosphorimager program (FUJI photo film Co., Carrollton, Tex., USA). The intensity of the band is proportional to the amount of peptide-bound class I MHC complex recovered during the assay. Subsequently, the extent of stabilization of the HLA-molecule is directly related to the binding affinity of the added peptide. The peptide concentration used to analyze the recovery of the HLA-molecules was 40, 4, 0.4, 0.04 μM for HLA-A1 and HLA-A11, and 100, 10, 1, 0.1, 0.01 μM for HLA-A2 and HLA-A3. The C50 value was subsequently calculated for each peptide as the peptide concentration sufficient for half maximal stabilization.

HLA-A3, sequence (P04439 25-365): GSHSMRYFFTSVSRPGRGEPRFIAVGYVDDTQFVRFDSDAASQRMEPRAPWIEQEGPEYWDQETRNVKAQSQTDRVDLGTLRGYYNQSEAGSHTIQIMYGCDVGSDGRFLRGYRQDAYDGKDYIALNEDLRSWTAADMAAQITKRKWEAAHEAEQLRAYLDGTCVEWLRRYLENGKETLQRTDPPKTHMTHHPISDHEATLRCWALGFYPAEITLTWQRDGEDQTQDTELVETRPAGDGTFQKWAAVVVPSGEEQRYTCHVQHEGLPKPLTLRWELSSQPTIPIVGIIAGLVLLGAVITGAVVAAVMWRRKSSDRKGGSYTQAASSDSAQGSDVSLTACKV
HLA-A3, sequence (P61769 21-119 partner): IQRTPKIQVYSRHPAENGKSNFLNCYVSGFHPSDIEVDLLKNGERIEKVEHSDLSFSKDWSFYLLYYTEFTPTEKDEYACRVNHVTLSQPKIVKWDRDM

| Compound | binding to HLA-A3, in words |
| --- | --- |
| CC(C)C[C@H](NC(=O)[C@@H](N)CC(=O)O)C(=O)N[C@@H](C)C(=O)N[C@@H](CCC(N)=O)C(=O)N[C@@H](CS)C(=O)N[C@@H](Cc1ccccc1)C(=O)N[C@@H](Cc1ccccc1)C(=O)N[C@@H](CS)C(=O)N[C@@H](CCCCN)C(=O)O [Sur53K9] (H-DLAQCFFCK-OH; N-terminus and C-terminus assumed) | no detectable effect |
| CC[C@H](C)[C@H](N)C(=O)N[C@@H](CC(C)C)C(=O)N[C@@H](CCCCN)C(=O)N[C@@H](CCC(=O)O)C(=O)N[C@H](C(=O)N[C@@H](CC(N)=O)C(=O)N[C@@H](CC(N)=O)C(=O)N[C@@H](CCCCN)C(=O)N[C@@H](CCCCN)C(=O)N[C@@H](CCCCN)C(=O)O)[C@@H](C)O [Sur113L2] | only bound weakly |
| FLKDHRISTK [Sur13K9] | no detectable effect |

same assay, conditions: Table 4, HLA-A3; read-out: C50

| Compound | EC50 |
| --- | --- |
| CC[C@H](C)[C@H](N)C(=O)N[C@@H](CC(C)C)C(=O)N[C@@H](CCCNC(=N)N)C(=O)NCC(=O)N[C@@H](CO)C(=O)N[C@H](C(=O)N[C@@H](C)C(=O)N[C@@H](Cc1c[nH]cn1)C(=O)N[C@@H](CCCCN)C(=O)O)C(C)C [C3, reference compound] | 0.1 to 0.3 µM and 0.1 µM |
| CC[C@H](C)[C@H](N)C(=O)N[C@@H](CC(C)C)C(=O)N[C@@H](CCCCN)C(=O)N[C@@H](CCC(=O)O)C(=O)N[C@H](C(=O)N[C@@H](CC(N)=O)C(=O)N[C@@H](CC(N)=O)C(=O)N[C@@H](CCCCN)C(=O)N[C@@H](CCCCN)C(=O)N[C@@H](CCCCN)C(=O)O)[C@@H](C)O [Sur113L2] | > 100 µM |
| CC[C@H](C)[C@H](NC(=O)[C@@H](N)[C@@H](C)O)C(=O)N[C@@H](CCCNC(=N)N)C(=O)N[C@@H](CCCNC(=N)N)C(=O)N[C@@H](CCCCN)C(=O)N[C@@H](CC(N)=O)C(=O)N[C@@H](CC(C)C)C(=O)N[C@@H](CCCNC(=N)N)C(=O)N[C@@H](CCCCN)C(=O)O [SurEx3-A3-1] | 0.5 µM |
| CAFLSVKKQF [Sur 84-93] | > 100 µM |
| FLKDHRISTF [Sur 13-22] | > 100 µM |
| FLKDHRISTK [Sur13K9] | > 100 µM |
| FLKLDRERAK [Sur 101-110] | > 100 µM |
| IAKETNNKKK [Sur 113-122] | > 100 µM |
| KLDRERAKNK [Sur 103-112] | > 100 µM |
| PTIRRKNLRK [SurEx3-A3-2] | > 100 µM |
| RISTFKNWPF [Sur 18-27] | > 100 µM |
| RITREEHKK [Sur2b-A3-1] | > 100 µM |
| TLPPAWQPF [Sur 5-13] | > 100 µM |
